Ten molecules from patent publication EP1212309B1, “CASPASE INHIBITOR” (LG Chem Investment, Ltd., priority 1999, dated 2001) can be followed below.

For one assay, the system named is Jurkat T cell. The assay is described as follows: MTT assay of cell death induced by Anti-FAS antibody CH11. In kind it is cell-based. As to conditions: Homo sapiens; Jurkat T cell treated with Anti-FAS antibody CH11, MTT; read-out: ED50 FAS Induced cell death. A general note: Tetrazolium assays rely on reduction of a dye to a coloured formazan, in cell work by metabolically active cells.

The target in a further assay is T1, caspase-1 (Homo sapiens, UniProt P29466).
T1 construct: made in house
T1 sequence (P29466 120-297 limits assumed): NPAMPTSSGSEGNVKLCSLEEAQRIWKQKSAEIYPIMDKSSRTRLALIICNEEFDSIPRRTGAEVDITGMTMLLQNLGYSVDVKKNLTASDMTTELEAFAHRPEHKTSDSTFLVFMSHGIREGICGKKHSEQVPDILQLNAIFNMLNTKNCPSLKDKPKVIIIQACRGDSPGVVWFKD
T1 sequence (P29466 317-404 limits assumed): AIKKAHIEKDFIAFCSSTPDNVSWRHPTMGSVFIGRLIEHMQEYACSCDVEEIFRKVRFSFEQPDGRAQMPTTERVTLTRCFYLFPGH
The assay is described as follows: Screening on caspases inhibiting activity (recombinant enzyme, fluorogenic AMC substrate). In kind it is biochemical. As to conditions: Irreversible Inhibitors; for kinact/KI: read-out: Kobs/[I] for caspase-1. Here is the method:
(§1) In the present experiment, recombinant caspases were purified from a transformed bacterium after human caspase genes were cloned into the expression vector pET, and then used in the experiment (Thornberry, N.A. et .al. Nature, 1992, 356, 768. Thombeny, N.A. Methods in Enzymology, 1994, 615.).
(§2) Enzymatic activity was measured by a known procedure (Walker N.P.C. et al., Cell 1994, 78, 343). Briefly, 10 ng of recombinant protein was mixed with 50 mM Tris(pH 7.0), 1mM DTT, 0.5 mM EDTA, 10% Glycerol buffer containing 1∼100 µM of enzyme substrate, Ac-YVAD-AMC or Ac-DEVD-AMC and then the changes by isolated AMC at 37°C were recorded. The inhibitory activity for caspases was calculated from the early enzyme reaction rate by measuring the changes with fluorescence excited at […] and emitted at 460 nm (Range; Ki<100nM).

The next assay concerns the target T2, caspase-3 (Homo sapiens, UniProt P42574).
T2 construct: made in house
T2 sequence (P42574 29-175 limits assumed): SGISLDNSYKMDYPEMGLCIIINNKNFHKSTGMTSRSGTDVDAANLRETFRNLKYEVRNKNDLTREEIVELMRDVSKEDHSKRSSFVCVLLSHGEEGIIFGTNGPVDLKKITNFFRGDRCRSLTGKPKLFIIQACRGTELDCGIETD
T2 sequence (P42574 176-277 limits assumed): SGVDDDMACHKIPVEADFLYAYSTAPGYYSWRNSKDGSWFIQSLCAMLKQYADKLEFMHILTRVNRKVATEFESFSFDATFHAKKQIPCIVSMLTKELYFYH
The description is as above. In kind it is biochemical. As to conditions: Irreversible Inhibitors; for kinact/KI: read-out: Kobs/[I] for caspase-3. Here is the method: as §1, §2

In assay [1] the test system is TNFα -mediated liver toxicity. The assay is described as follows: TNFα-mediated liver toxicity and mortality in mice. In kind it is in vivo, C57BL/6 female mice.
Assay [2] relates to anti-Fas antibody-induced liver apoptosis. As to the kind of experiment: Anti-Fas antibody (Jo2)-induced liver apoptosis and lethality in mice. In kind it is in vivo, C57BL/6 female mice. Here is the method:
[…] C57BL/6 female mice(18-20 g) were injected i.p. with compound 33MP dissolved in vehicle which consists of olive oil and 10% DMSO, or vehicle alone, at 1 hr before i.v. injection with 10 µg of Anti-Fas antibody (Jo2). Following 4 hrs of i.v. injection with Jo2 antibody, animals were placed under inhaled isoflurane anesthesia for blood collection and liver isolation. Mice were also i.p. injected with 0.2 µg/20 g of TNFα and 12 mg/20 g of D-galactosamine(TNFα /GalN) and compound 33MP or its salt form (Compound 33MP-Na). 8 hrs later, blood and liver tissues were isolated from anesthetized animals. The liver tissues were snap-frozen and stored at -80° C until use. Plasma was isolated from blood by centrifugation at 12,000 x g for 10 min at 4° C and stored at -80° C. In some experiments for animal mortality, mice were i.p. injected with TNFα /GalN and caspase inhibitor was injected 1 hr before, simultaneously, 2 hrs, or 4 hrs after TNFα /GalN injection.
Whole tissues (0.5 g) were homogenated in ice-cold lysis buffer (5 mM Tris, 20 mM EDTA, 0.5% Triton-X 100, pH8.0). The lysate was centrifuged at 12,000 x g for 20 min at 4° C. The supernatant was obtained and extracted twice with a mixture of phenol and chloroform. One-tenth volume of 3 M sodium acetate was added to the solution, and DNA was precipitated by adding an equal volume of isopropanol. After storing at -20° C overnight, a DNA pellet was obtained by centrifugation at 12,000 x g for 15 min. at 4 ° C and washed twice with 75% ethanol. The pellet was dried and resuspended in 100 µl of 20 mM Tris-HCl, pH 8.0. After digesting RNA with DNase-free RNase (0.1 mg/ml) at 37 ° C for 1 hr, samples […] were electrophoresed through a 1.2% agarose gel in […] Tris borate + EDTA (TBE), pH 8.0 buffer. DNA was photographed under visualized with UV light.
Liver tissues were homogenated in 10 mM HEPES buffer containing protease inhibitors (5 µg/ml aprotinin, 5 µg/ml pepstatin A, 10 µg/ml leupeptin, and 0.5 mM PMSF) and lysed by three freeze/thaw cycles. The cytosolic fraction was obtained by centrifugation at 12,000 x g for 20 min. at 4" C. Protein concentration was determined with BCA protein assay reagent (pierce, Rockford, IL). Cytosol containing 200 µg protein was combined in 96-well plate with […] of synthetic substrate Ac-DEVD-pNA in 150 µl of 100 mM HEPES, pH 7.4, containing the protease inhibitors, and the reaction was conducted for 1 hr at 37° C. […] Plasma level of aspartate aminotransferase (AST) was analyzed by spectrophotometry using each enzyme assay kit (Sigma).

The mark [3] stands for this setting: mice treated with TNFα /ActD (so in the source).

As to `CCCC1(C(=O)N[C@@H](CC(=O)O)C(=O)COC(=O)c2c(Cl)cccc2Cl)CC([C@@H](NC(=O)CCC(=O)O)C(C)C)=NO1` (single isomer, unassigned) [Compound 76], the EC50 in the assay with Jurkat T cell lay within 1 to 10 µM. The kinact/KI is 14000 M⁻¹ s⁻¹ on caspase-1 and 197000 M⁻¹ s⁻¹ at caspase-3.
Consider `CC(C)[C@H](NC(=O)CCC(=O)O)C1=NOC(C)(C(=O)N[C@@H](CC(=O)O)C(=O)COC(=O)c2c(Cl)cccc2Cl)C1` (stereo partly drawn) [Compound 74, (3S)-3-{3-[2-methyl-(1S)-1-(succinoylamino)-propyl]-5-methyl-4,5-dihydro-isoxazole-5-carbonylamino}-4-keto-5-(2,6-dichlorobenzoyloxy)-pentanoic acid], for which, on caspase-1, the “Kobs/[I] for caspase-1” value came to 14500 M⁻¹ s⁻¹. Further, the “Kobs/[I] for caspase-3” value on caspase-3 worked out at 40900 M⁻¹ s⁻¹.
Turning to `CC(C)[C@H](NC(=O)CCc1ccccc1)C1=NOC(Cc2ccccc2)(C(=O)N[C@@H](CC(=O)O)C(=O)COC(=O)c2c(Cl)cccc2Cl)C1` (mixture of isomers) [Compound 32, (3S)-3-{3-[2-methyl-(1S)-1-(phenylethylcarbonylamino)-propyl]-5-phenylmethyl-4,5-dihydro-isoxazole-5-carbonylamino}-4-keto-5-(2,6-dichlorobenzoyloxy)-pentanoic acid], the EC50 in the assay on Jurkat T cell was in the range of 1 to 10 µM. For the same molecule, the figures for the kinact/KI on caspase-1 and on caspase-3 were 130000 M⁻¹ s⁻¹ and 114 M⁻¹ s⁻¹, respectively.
For `CC(C)[C@H](NC(=O)c1ccc2ccccc2n1)C1=NOC(Cc2ccccc2)(C(=O)N[C@@H](CC(=O)O)C(=O)COC(=O)c2c(Cl)cccc2Cl)C1` (stereo partly drawn) [Compound 42mp, (3S)-3-{3-[2-methyl-(1S)-1-(quinoline-2-yl-carbonylamino)-propyl]-5-phenylmethyl-4,5-dihydro-isoxazole-5-carbonylamino}-4-keto-5-(2,6-dichlorobenzoyloxy)-pentanoic acid], in that order: 1 to 10 µM, 408000 M⁻¹ s⁻¹ and 160 M⁻¹ s⁻¹.
For `CCCCC1(C(=O)N[C@@H](CC(=O)O)C(=O)COC(=O)c2c(Cl)cccc2Cl)CC([C@@H](NC(=O)CCC(=O)O)C(C)C)=NO1` (single isomer, unassigned) [Compound 80], in that order: 1 to 10 µM, 14900 M⁻¹ s⁻¹ and 1.14e+06 M⁻¹ s⁻¹.
As for `CC(C)[C@H](NC(=O)c1cccc2ccccc12)C1=NOC(Cc2ccccc2)(C(=O)N[C@@H](CC(=O)O)C(=O)COC(=O)c2c(Cl)cccc2Cl)C1` (stereo partly drawn) [Compound 33mp, (3S)-3-{3-[2-methyl-(1S)-1-(1-naphthalenecarbonylamino)-propyl]-5-phenylmethyl-4,5-dihydro-isoxazole-5-carbonylamino}-4-keto-5-(2,6-dichlorobenzoyloxy)-pentanoic acid], the animals survived in assay [1] (TNFα /ActD-mediated mouse mortality, within 24 hrs) came to 80%. In assay [1] (setting [3]), the “DNA fragmentation in liver tissues” value is “significantly reduced”, the “caspase-3-like activity in liver” value is “suppressed” and the “release of AST” value is given as “suppressed”. The “liver apoptosis as determined by DNA fragmentation” value in assay [2] (0.4 mg/20 g, 1 mg/20 g i.p. 1 hr before anti-Fas antibody, 4 hrs after antibody) is on record as “suppressed the liver apoptosis in a dose-dependent manner”. The “release of liver enzyme AST” value in assay [2] (anti-Fas antibody-treated mice) is listed as “significantly suppressed”. The reduction of mortality result in assay [2] (anti-Fas antibody-treated mice (85% died within 24 hrs without treatment)) was “about 30%”. Moreover, the “caspase-3-like activity in liver tissues” value in assay [2] (anti-Fas antibody-treated mice, Ac-DEVD-pNA) is “abrogated”. Besides, in the assay with Jurkat T cell, the EC50 fell in the range of 1 to 10 µM. Besides, the kinact/KI on caspase-1 is 807000 M⁻¹ s⁻¹. On caspase-3, the kinact/KI was determined as 500 M⁻¹ s⁻¹.
For `CC(C)[C@H](NC(=O)c1cccc2ccccc12)C1=NOC(Cc2ccccc2)(C(=O)N[C@@H](CC(=O)O)C(=O)COC(=O)c2c(F)cccc2F)C1` (stereo partly drawn) [Compound 58, (3S)-3-{3-[2-methyl-(1S)-1-(naphthalene-1-carbonylamino)-propyl]-5-phenylmethyl-4,5-dihydro-isoxazole-5-carbonylamino}-4-keto-5-(2,6-difluorobenzoyloxy)-pentanoic acid], the EC50 with Jurkat T cell is 1 to 10 µM. Besides, the kinact/KI at caspase-1 was 577000 M⁻¹ s⁻¹; at caspase-3 it was 371 M⁻¹ s⁻¹.
On to `CC(C)[C@H](NC(=O)CCC(=O)O)C1=NOC(Cc2ccccc2)(C(=O)N[C@@H](CC(=O)O)C(=O)COC(=O)c2c(Cl)cccc2Cl)C1` (stereo partly drawn) [Compound 86, (3S)-3-{3-[2-methyl-(1S)-1-(succinoylamino)-propyl]-5-phenylmethyl-4,5-dihydro-isoxazole-5-carbonylamino}-4-keto-5-(2,6-dichlorobenzoyloxy)-pentanoic acid], for which the “Kobs/[I] for caspase-1” value on caspase-1 is 7560 M⁻¹ s⁻¹. For the same molecule, the “Kobs/[I] for caspase-3” value at caspase-3 stood at 28000 M⁻¹ s⁻¹.
For `CC1(C(=O)N[C@@H](CC(=O)O)C(=O)COC(=O)c2c(Cl)cccc2Cl)CC([C@H](CCC(=O)O)NC(=O)CCC(=O)O)=NO1` (single isomer, unassigned) [Compound 72], in the assay with Jurkat T cell, the EC50 lay in the range of 1 to 10 µM. In addition, the figures for the kinact/KI on caspase-1 and at caspase-3 were 30800 M⁻¹ s⁻¹ and 176000 M⁻¹ s⁻¹, respectively.
For the molecule `COCC1(C(=O)N[C@@H](CC(=O)O)C(=O)COC(=O)c2c(Cl)cccc2Cl)CC([C@@H](NC(=O)CCC(=O)O)C(C)C)=NO1` (stereo partly drawn) [Compound 87, (3S)-3-{3-[2-methyl-(1S)-1-(succinoylamino)-propyl]-5-methoxymethyl-4,5-dihydro-isoxazole-5-carbonylamino}-4-keto-5-(2,6-dichlorobenzoyloxy)-pentanoic acid], the “Kobs/[I] for caspase-1” value at caspase-1 is 3400 M⁻¹ s⁻¹. At caspase-3, the “Kobs/[I] for caspase-3” value is 27400 M⁻¹ s⁻¹.
